A word on the melting point: it is the temperature, or range, at which the solid turns liquid.

`CC1CCCc2cc([N+](=O)[O-])cnc21` (stereo not given) displayed a melting point of 61 to 63 °C.

Turning to `NS(=O)(=O)c1ccc(NC(=O)C(=O)N2CCC(Cc3ccccc3)CC2)cc1`, the melting point lay within 184 to 187 °C.

In turn, `O=C(Cc1cc(O)no1)OC(c1ccccc1)c1ccccc1` had a melting point of 105 to 106 °C.

`CCCCN(Cc1ccccc1)CC1CCc2c(C)cc3c(c2C1=O)CCC(=O)N3` (stereo not given): the melting point was in the range of 190 to 193 °C.

`Cc1c(F)c(F)c(F)c2c1c(=O)c(C(=O)O)cn2C1CC1` registered a melting point of 234 to 235 °C.

The compound `COc1ccc(C(=O)c2c(N)sc3c2CCN(Cc2ccccc2)C3)cc1OC` had a melting point of 149 to 150 °C.

For `CCCCCCOc1cccc2c(OCCCCCC)cccc12`, the melting point fell in the range of 92 to 93 °C.

As to `CCn1cc(C(=O)O)c(=O)c2cc(F)c(N3CCNC(c4cc5cc(Cl)ccc5o4)C3)cc21` (stereo not given), the melting point lay in the range of 262 to 263 °C.

Consider `O=C(COc1cccc2ccccc12)NC(Cc1ccccc1)C(=O)CSCc1ccco1` (stereo not given), for which the melting point was in the range of 104 to 106 °C.

In turn, `CCOC(=O)Cc1cccc(C(=O)c2ccccc2)c1NC(C)=O` registered a melting point of 133 to 134 °C.

As to `CCCC(NOCC)=C1C(=O)CC(C2=C(C)CCCC2(C)C)C(C(=O)OC)C1=O` (stereo not given), the melting point was 70 °C.

In turn, `CN(C)Cc1cccc(-c2csc(N=C(N)N)n2)n1` had a melting point of 160 to 162 °C.

The compound `COc1cccc2c1C[C@H]1C[C@@H](CCN3CCN(C(c4ccccc4)c4ccccc4)CC3)CN(C)[C@@H]1C2` gave a melting point of 140 to 148 °C.

The compound `COc1cc2ncnc(NNC(N)=O)c2cc1OC` gave a melting point of 247 to 249 °C.

In turn, `O=C(Oc1ccc(-c2ccccc2)cc1)Oc1ccc([N+](=O)[O-])cc1` gave a melting point of 138 to 140 °C.

Regarding `CCOC(=O)C(Cc1ccccc1)N(CC)C(=O)OC(C)(C)C` (stereo not given), the melting point was in the range of 58 to 61.5 °C.

On to `CS(=O)c1ccc(C2=C(c3ccccc3)C(=O)OC2)cc1` (stereo not given), for which the melting point lay within 149 to 150 °C.

For the compound `O=C(O)[C@H](CS)N(Sc1nc2cc(Cl)ccc2s1)C(=O)Cc1ccccc1`, the melting point fell in the range of 155 to 158 °C.

As for `O=c1ccsc2c1[nH]c1ccccc12`, the melting point was in the range of 242 to 243 °C.

As to `CC(CCNC(=O)c1ccc(Cl)nc1)n1ccnc1` (stereo not given), the melting point lay within 137 to 139 °C.

On to `O=C(CCCl)c1ccc2[nH]c3ccccc3c2c1`, for which the melting point fell in the range of 148 to 151 °C.

Take `CCCCCCNc1nc(N)nc2c1ncn2C1CC(F)C(CO)O1` (stereo not given): the melting point was 50 to 51 °C.

Compound `Clc1ncnc2c1c(I)cn2C1CCOC1` (stereo not given) displayed a melting point of 184 to 186 °C.

The compound `CCN1C(=O)C(C)(C)C(=O)N(C)c2cc(CN(CCn3ccc4sccc4c3=O)Cc3cccnc3C)ccc21` had a melting point of 139 to 140 °C.

In the case of `CNC(=Nc1cccc(CN(C)C)n1)NC#N`, the melting point was in the range of 180 to 181 °C.

Regarding `COc1ccc(S(N)(=O)=O)cc1C(O)C(C)N=[N+]=[N-]` (stereo not given), the melting point was 109 to 110 °C.

Turning to `O=C(O)c1cnn2c(C(F)(F)F)cc(-c3ccc(C(F)(F)F)cc3)nc12`, the melting point amounted to 248 °C.

As to `CCOC(=O)c1c(NCCCC(=O)c2ccccc2)c2c(Cl)cc(Cl)cc2n1C(=O)OC(C)(C)C`, the melting point was in the range of 110 to 111 °C.

`CCCOc1ccccc1-c1nc2nc(CC)ncc2c(=O)[nH]1` came in with a melting point of 118 to 119 °C.

`O=C(O)c1ccc(-c2c[nH]c(=O)cn2)cc1` gave a melting point greater than 300 °C.

Turning to `C#CC(CC(=O)OC(C)(C)C)N=Cc1ccccc1` (stereo not given), the melting point was 199 to 200 °C.

Turning to `COC(=O)c1nsc(S)n1`, the melting point is 126 to 127 °C.

For `Oc1ccc(O)c2nccnc12`, the melting point lay in the range of 234 to 236 °C.

Take `COc1ccccc1C(=O)c1noc(CC(N)=O)n1`: the melting point lay within 149 to 150 °C.

Compound `CSc1ccc(C(CC2CCCO2)C(=O)O)cc1Cl` (stereo not given) had a melting point of 93 to 96 °C.

Consider `OC1OC(Cn2cncn2)(c2ccc(Cl)cc2)c2ccccc21` (stereo not given), for which the melting point lay in the range of 215 to 217 °C.

As for `Cc1ccc(S(=O)(=O)Oc2cccc(C=O)c2)cc1`, the melting point is 65 to 67 °C.

In turn, `Nc1ccccc1CCc1ccccn1` came in with a melting point of 59 to 61 °C.

`Cc1ccc(Sc2ccc3c(c2)CC[C@H]2NC(=O)CC[C@]32C)cc1` came in with a melting point of 209 to 212 °C.

On to `C#CC1(O)CCC2C3CCC4=CC(=O)CCC4C3C(=CF)CC21CC` (stereo not given), for which the melting point is 169 to 180 °C.

`COc1cccc(-c2cnc(C#N)c(C#N)n2)c1` returned a melting point of 139 to 140 °C.

`O=C(O)CCCc1nc2c(F)c(F)cc(F)c2s1` gave a melting point of 113 to 114 °C.

For `CCCOc1ccccc1-c1nc2nc(NCC(C)O)ncc2c(=O)[nH]1` (stereo not given), the melting point is 212 to 214 °C.

`COC1(c2cc(F)cc(OCc3ccc(C(=O)O)cc3)c2)CCOCC1` registered a melting point of 184 to 186 °C.

`COc1cc(Nc2c(C#N)cnc3cc(C#CCCN4CCN(C)CC4)c(OC)cc23)c(Cl)cc1Cl` gave a melting point of 165 to 167 °C.

Compound `Cc1ncc(Cn2c(NC3CCNCC3)nc3ccccc32)o1` showed a melting point of 227 °C.

In the case of `CC(C)(C)NS(=O)(=O)c1cn(CCOC2CCCCO2)c2ccccc12` (stereo not given), the melting point lay in the range of 125 to 132 °C.

In turn, `CCNC(=S)NS(=O)(=O)c1cc2c(cc1OC)OCC(NC(=O)c1cc(Cl)ccc1OC)C2` (stereo not given) displayed a melting point of 194 to 195 °C.

`Cc1nc2cnc3ccccc3c2n1CC(C)O` (stereo not given) returned a melting point of 176 to 177 °C.

The compound `N#CCCNC(=O)c1cccc(-c2ccc3c(c2)N(c2cc(Cl)cc(Cl)c2)CC3)c1` gave a melting point of 196 to 197 °C.

`Cn1nnnc1-c1cnc2ccccc2c1O` returned a melting point of 318 to 320 °C.

`CCC(Oc1ccc(C(C)(C)CC)cc1C(C)(C)CC)C(=O)Nc1cc(O)c(NC(=O)c2ccccc2NS(C)(=O)=O)cc1Cl` (stereo not given) gave a melting point of 199 to 201 °C.

For `CCOC(=O)[C@H](Cc1cc(Cl)c(N)c(Cl)c1)NC(=O)C(F)(F)F`, the melting point was 124 to 125 °C.

On to `O=C(Cl)c1c(-c2ccccc2)nn2c1-c1ccccc1CC2`, for which the melting point lay within 109 to 110 °C.

For `Cc1nc(Cl)c([N+](=O)[O-])c(N(c2ccccc2)c2ccccc2)n1`, the melting point is 128 to 130 °C.

Turning to `O=C(O)C1Cc2c(ccc3c(=O)c4c(F)cccc4oc23)O1` (stereo not given), the melting point lay within 262 to 265 °C.

In the case of `Cc1ccc(F)c([Si](C)(C)C)c1C(=O)N(C)C(C)(C)C`, the melting point was in the range of 44 to 47 °C.

`Cc1cccc(NC(=O)NC2N=C(c3ccccc3F)c3ccccc3N(CCOC(=O)N3CC4CCC(CC4)C3)C2=O)c1` (racemic) came in with a melting point of 169 to 171 °C.

As for `CCN(CC)c1ccc2cc(C=CC(=O)c3c(N(CC)CC)c4ccccc4oc3=O)oc2c1`, the melting point was 169 to 171 °C.

`CCOc1ccc2[nH]c(SCc3cccn4ccnc34)nc2c1` gave a melting point of 157 to 160 °C.

For `CC1(C)CCN(C(=O)NCc2ccccc2)c2cc(C#N)ccc21`, the melting point fell in the range of 114 to 115 °C.

`Cc1cccc(-c2[nH]c(C(C)C)nc2-c2cccc(-c3ccc4c(c3)CCCS4=O)c2)n1` (stereo not given) yielded a melting point of 136 to 139 °C.

In turn, `Cc1cc(C)c2c(c1)c1c(n2Cc2ccc(Cl)cc2)C(CC(=O)O)CCC1` (stereo not given) came in with a melting point of 187 to 188 °C.

For the compound `COC(C)c1cc2c(=O)n(NS(C)(=O)=O)c(=O)[nH]c2cc1C(F)(F)F` (stereo not given), the melting point was 233 to 236 °C.

As to `O=C(O)CCc1ccc([N+](=O)[O-])cc1`, the melting point lay in the range of 162 to 164 °C.

In the case of `Cc1cc([C@@H](O)[C@@H](C)N2CCC(O)(c3ccc(F)cc3)CC2)ccc1O[Si](C(C)C)(C(C)C)C(C)C` (relative stereo), the melting point fell in the range of 188 to 189 °C.

In turn, `CC(C)n1nc(-c2cc(C(C)(C)C)c(O)c(C(C)(C)C)c2)c2cccnc21` came in with a melting point of 147 °C.

`NC(=O)c1cc(-c2ccncc2)nnc1Cl` registered a melting point greater than 300 °C.

In turn, `CC(=O)c1c(N2CCCC2)nn2ccccc12` came in with a melting point of 59.5 to 60 °C.

As to `CC(C)[Si](C)(C)CCCSCCCNC(=O)n1cc(F)c(=O)[nH]c1=O`, the melting point was in the range of 101 to 102 °C.

Compound `CC=CCn1c(N(C(C)=O)c2cc(C)cc(C)c2)c(CC)c(=O)[nH]c1=O` displayed a melting point of 218 to 220 °C.

The compound `Clc1ccc2nc(-c3ccccc3)oc2n1` returned a melting point of 150 to 151 °C.

For the compound `COC(=O)C1=C(C)NC(=S)N(C(=O)Cc2ccccc2)C1c1cccc([N+](=O)[O-])c1` (stereo not given), the melting point lay in the range of 155 to 156 °C.

With `COc1ccc2c(c1)NC(=O)C(CCCBr)O2` (stereo not given), the melting point lay within 102 to 103 °C.

In turn, `Cc1cc(NNC(=O)OC(C)(C)C)nnc1-c1ccc(C#N)cc1` had a melting point of 169 to 171 °C.

On to `N#CCc1ccccc1-c1ccc(C(=O)N2Cc3ccc(C(=O)NCc4cccnc4)n3Cc3ccccc32)cc1`, for which the melting point lay within 105 to 108 °C.

`CCCCCCCCOc1ccc2c(c1CCC)OC(CCC(=O)O)(CCC(=O)O)CC2=O` gave a melting point of 148 °C.

In the case of `CCC(C)(CC)c1nnc(NC(=O)c2ccccc2)s1`, the melting point is 98 to 100 °C.

In the case of `CCCc1c2nc(C(=O)OC)cc(N(C)S(=O)(=O)c3ccc(C)cc3)c2cc2c(=O)cc(C(=O)OCC)oc12`, the melting point is 173 to 174 °C.

As for `CN(CCSC(=O)Cc1ccccc1Nc1c(Cl)cccc1Cl)CC1(S)CCCCC1`, the melting point stood at 55 °C.

`Cc1ccc(S(=O)(=O)OCC2Cc3c[nH]c4cccc(c34)C(=O)N2)cc1` (stereo not given) showed a melting point of 175 to 178 °C.

The compound `COc1ccc(S(=O)(=O)F)nn1` came in with a melting point of 87 to 88 °C.

`Cc1cn(C)c2c1N(C(=O)CCBr)c1ccccc1NC2=O`: the melting point lay within 194 to 195 °C.

`CCOC(=O)c1c(CN(CC)CC)nc2sc3c(c2c1-c1ccc(Cl)cc1)CCNC3` registered a melting point of 104 to 106 °C.

Turning to `CCCc1c(O)ccc2ccc(C(=O)OCC)cc12`, the melting point was 114 to 115 °C.

In the case of `O=C(C(=O)c1ccn(CC(F)(F)F)c1)c1cccc(Br)c1`, the melting point was 105 to 106 °C.

In turn, `COc1cc(-n2nc(C)[nH]c2=O)c(F)cc1Cl` yielded a melting point of 193 to 195 °C.

For the compound `COc1cc(Nc2c(C#N)cnc3cc(/C=C/C(=O)N4CCN(C)CC4)sc23)c(Cl)cc1Cl`, the melting point was 218 to 220 °C.

On to `COc1ccc2c(c1)C13CCN(C#N)C(C2)C1CC(C)C(=O)C3` (stereo not given), for which the melting point was 188 to 192 °C.

Take `Cc1ccc(C)c(-c2c(C)ccc(C)c2O)c1O`: the melting point fell in the range of 110 to 113 °C.

These data come from a melting point compilation (Tetko et al.; mined from patent text by program, amines drawn as free bases though some values may be those of a salt).
